Test results reported in PMC9266914, “Broad Spectrum Functional Activity of Structurally Related Monoanionic Au(III) Bis(Dithiolene) Complexes” (International Journal of Molecular Sciences, 2022).

How the values were obtained:
Huh7 cells = assay: Cell viability (cell confluency, Alamar Blue) of P. berghei-infected Huh7 cells; format: cell-based; settings: 5 µM, in words
Experimental: The in vitro liver stage activity of gold complexes was assessed against P. berghei-infected Huh7 cells, as previously described. Briefly, Huh7 cells were cultured in RPMI-1640 medium supplemented with 10% (v/v) fetal bovine serum, 1% (v/v) penicillin/streptomycin, 1% (v/v) glutamine, 1% (v/v) non-essential amino acids and 10 mM HEPES. On the day prior to infection, Huh7 cells were seeded in 96-well plates at a density of approximately 3.1 × 10^4 cell/cm^2 and incubated at 37 °C, 5% CO2. Stock solutions of the complexes were initially prepared in DMSO and serially diluted in infection medium, i.e., culture medium supplemented with gentamicin (50 µg/mL) and fungizone (0.8 µg/mL), to obtain the test concentrations. As a control, DMSO was diluted in infection medium to a percentage that equals that of the highest compound concentrations tested. These dilutions were added to the cells in triplicates and incubated for 1 h at 37 °C, 5% CO2, after which 1 × 10^4 luciferase-expressing P. berghei sporozoites were added to each well. Plates were centrifuged at 1800× g for 5 min at room temperature and incubated for the duration of the assay. At 46 h post-infection (hpi), the impact of each compound concentration on cell viability was assessed by the Alamar Blue (Invitrogen, Buckinghamshire, UK) assay, according to the manufacturer’s recommendations. Infection was next assessed by bioluminescence, employing the Firefly Luciferase Assay Kit 2.0 (Biotium, Fremont, CA, USA), according to the manufacturer’s recommendations. For IC50 determination, nonlinear regression analysis was employed to fit the normalized results of the dose–response curves, using GraphPad Prism 8 (GraphPad software, La Jolla, CA, USA).

Cyclic voltammetry = format: physicochemical; settings: CH2Cl2, NBu4PF6
Text: The redox properties of the various gold(III) bis(dithiolene) and bis(diselenolene) complexes were investigated by cyclic voltammetry using the same conditions, dichloromethane solutions and NBu4PF6 as supporting electrolyte. Under these conditions, the nature of the counter-ion, Ph4P^+ or Et4N^+, had no influence on the redox properties observed, due to ion exchange with the Bu4N^+ of the supporting electrolyte. Thus, only the result of one monoanion is included in Table 1, even if the two salts were analyzed. For all the investigated monoanionic bis(dithiolene) complexes, three redox processes are observed on the cyclic voltammograms. On the anodic scan, the two oxidation waves correspond to the oxidation of the monoanionic species into the neutral and to the monocationic complex. Most of these complexes had the tendency to deposit on the electrode once oxidized and frequently a strong desorption peak was observed on the reversible scan. This phenomenon occurs essentially for the complex with an exocyclic sulfur atom, [AuSR(=S)]^−1. On the cathodic scan, an irreversible process associated with the reduction in the monoanion into the dianion occurs (Scheme 2). […] The presence of oxygen instead of sulfur makes the oxidation of the monoanionic into the neutral species easier. On the other hand, the presence of electron-withdrawing substituents such as =C(CN)2 induces an anodic shift of the oxidation potentials by 300 mV, compared with the =O derivative, leading to a monoanion which is more difficult to oxidize than the other complexes of the series. […] Indeed, the potential difference between the second and the first oxidation potentials amounts to 470 mV and 410 mV for the =O and the =C(CN)2 derivatives, respectively, while for the =S analogues this value is smaller (170 mV). […] For comparison, we also investigated the redox behavior of Auranofin using the same experimental conditions in CH2Cl2 in the presence of NBu4PF6 as a supporting electrolyte. Using these conditions, upon anodic scan only one irreversible oxidation process is observed at 1.42 V vs. SCE. Therefore, all these monoanionic gold bis(dithiolene) and bis(diselenolene) complexes are easier to oxidize than Auranofin.
All reagents and materials from commercial sources were used without further purification. NMR spectra were recorded at room temperature using CDCl3 unless otherwise stated (Figures S7–S15). Chemical shifts are reported in ppm and ^1H NMR spectra were referenced to residual CHCl3 (7.26 ppm) and ^13C NMR spectra were referenced to CHCl3 (77.2 ppm). Mass spectra were recorded with an Agilent 6510 instrument for organics compounds and with a Thermo-Fisher Q-Exactive instrument for complexes by the Center Régional de Mesures Physiques de l’Ouest, Rennes. Cyclic voltammograms (CV)s were carried out on a 10^−3 M solution of complex in CH2Cl2-[NBu4] [PF6] 0.1 M. CVs were recorded on a Biologic SP-50 instruments at 0.1 Vs^−1 on a platinum disk electrode. Potentials were measured versus KCl Saturated Calomel Electrode (SCE). Column chromatography was performed using silica gel Merck 60 (70–260 mesh). The solvents were purified and dried by standard methods. The proligand 2-SEt(=C(CN2)), [72] and complexes [N][AuSMe(=S)], [73] [N][AuSEt(=S)], [74] [P][AuSEt(=O)], [75] [N][AuSeEt(=S)] [75] and [P][AuSPr(=S)] [76] were synthesized according to the previously reported procedure.

Compound | toxicity seen as lower cell confluency (Huh7 cells) | irreversible oxidation process (anodic scan) (Cyclic voltammetry)
CCn1c2c(sc1=[Se])[S][Au-]1([S]c3sc(=[Se])n(CC)c3[S]1)[S]2.c1ccc([P+](c2ccccc2)(c2ccccc2)c2ccccc2)cc1 [[P][AuSEt(=Se)]] | some degree of toxicity | 
CC(=O)OC[C@H]1O[C@@H]([S-])[C@H](OC(C)=O)[C@@H](OC(C)=O)[C@@H]1OC(C)=O.CCP(CC)CC.[Au+] [Auranofin, reference compound] |  | 1.42 V vs. SCE
CCn1c2c(sc1=S)[S][Au-]1([S]c3sc(=S)n(CC)c3[S]1)[S]2.c1ccc([P+](c2ccccc2)(c2ccccc2)c2ccccc2)cc1 [[P][AuSEt(=S)]] | some degree of toxicity | 
